Assay results taken from PubChem BioAssay AID1963962 (Molecular Pharmacology Branch, DTP, NCI, 2024).

Test system: 967376-340-R-J2-PDC multicell spheroid viability
Assay: Anticancer human tumor 967376-340-R-J2-PDC patient-derived colon adenocarcinoma cell line growth inhibition [PI3K]
Conditions: for IC50: curve of first compound; for viability, T/C: stronger effect = lower value
From the text: Combinatorial screen of targeted agents with the PI3K inhibitors inavolisib, alpelisib, duvelisib, and copanlisib in multi-cell type tumor spheroids
A high-throughput screen of multi-cell type tumor spheroids was designed to identify active combinations of targeted small molecules and PI3K pathway inhibitors. Complex spheroids include a stromal component modeled by human endothelial cells (HUVEC) and fibroblasts modeled by human mesenchymal stem cells (MSCs). The concentration ranges selected for each drug and investigational agent were based upon clinically achievable concentrations if the clinical Cmax of the agent was known.
Compounds. The drugs and investigational agents: inavolisib (NSC800729), alpelisib (NSC765974), duvelisib (NSC772469), copanlisib (NSC816437), ipatasertib (NSC767898), afuresertib (NSC778305), talazoparib (NSC767125), sapanisertib (NSC764658), selumetinib (NSC741078), tovorafenib (DAY101, NSC766906), vemurafenib (NSC761431), ravoxertinib (NSC781343), sotorasib (NSC818433), MRTX1133 (NSC 836407), abemaciclib (NSC 768073), palbociclib (NSC758247), venetoclax (NSC 766270), SY5609 (NSC837396), enzalutamide (NSC755605), and darolutamide (NSC825331), were obtained from the National Cancer Institute (NCI) Developmental Therapeutics Program Chemical Repository. The FDA-approved anticancer drug set is available from the NCI Developmental Therapeutics Program. […] The stock solutions were prepared in dimethyl sulfoxide (DMSO, Sigma-Aldrich, St. Louis, MO, cat. D2650) at 800-fold the tested concentration and stored at -70 degrees C prior to their use. All drugs and investigational agents were tested over a range starting from a high concentration at or near the clinical Cmax and decreasing in half-log increments. If the clinical Cmax for an agent had not been determined, the highest concentration tested was 10 microM.
Cell Culture. All cells were maintained in an incubator at 37 degrees C and 5% CO2 with 95% humidity. The PDC lines were cultured according to standard operating procedures established by the NCI PDMR (https://pdmr.cancer.gov/sops/default.htm). All PDCs were thawed and cultured in Matrigel-coated flasks prepared with a working solution of 1X Ham's F-12 nutrient mix, without supplementation (Invitrogen, Waltham, MA, cat. 11765054), 100 U/mL penicillin-streptomycin (Invitrogen, cat. 15140122), and 2.5% Matrigel (Corning Inc., Corning, NY, cat. 354248) for the first three passages. The 354836-022-R-J1-PDC, 475296-252-R-J1-PDC, and 997726-040-R-J2-PDC lines were cultured in 6A media, which includes advanced DMEM/F-12 (Thermo Fisher Scientific, cat. 12634028), 10 mM HEPES (Thermo Fisher Scientific, cat. 15630080), 1X GlutaMAX supplement (Thermo Fisher Scientific, cat. 35050061), 0.1 mg/mL primocin (InvivoGen, San Diego, CA, cat. ant-pm-2), 10% defined fetal bovine serum, heat inactivated (HyClone Laboratories Inc., Logan, UT, cat. SH30070.03HI), 50% L-WRN conditioned media (ATCC, cat. CRL-3276), 1.25 mM N-Acetyl-L-cysteine (Sigma-Aldrich, cat. A9165), 10 mM nicotinamide (Sigma-Aldrich, cat. N0636), 1X B-27 supplement (Thermo Fisher Scientific, cat. 17504044), 1X N-2 supplement (Thermo Fisher Scientific, cat. 17502048), and 10 microM Y-27632 dihydrochloride (Tocris Bioscience, Bristol, United Kingdom, cat. 1254). The 624824-186-R-J2-PDC line was cultured in 6C/Colon 1B media, which includes all 6A media components plus 50 ng/mL human EGF recombinant protein (Thermo Fisher Scientific, cat. PHG0311). […]

[1] = second compound 0.00316 µM, first compound 0.0316 µM
[2] = second compound 0.00316 µM, first compound 0.1 µM
[3] = second compound 0.00316 µM, first compound 0.316 µM
[4] = second compound 0.00316 µM, first compound 1 µM
[5] = second compound 0.00316 µM, first compound 3.16 µM
[6] = second compound 0.00316 µM, first compound 10 µM
[7] = second compound 0.01 µM, first compound 0.0316 µM
[8] = second compound 0.01 µM, first compound 0.1 µM
[9] = second compound 0.01 µM, first compound 0.316 µM
[10] = second compound 0.01 µM, first compound 1 µM
[11] = second compound 0.01 µM, first compound 3.16 µM
[12] = second compound 0.01 µM, first compound 10 µM
[13] = second compound 0.0316 µM, first compound 0.0316 µM
[14] = second compound 0.0316 µM, first compound 0.1 µM
[15] = second compound 0.0316 µM, first compound 0.316 µM
[16] = second compound 0.0316 µM, first compound 1 µM
[17] = second compound 0.0316 µM, first compound 3.16 µM
[18] = second compound 0.0316 µM, first compound 10 µM
[19] = second compound 0.1 µM, first compound 0.0316 µM
[20] = second compound 0.1 µM, first compound 0.1 µM
[21] = second compound 0.1 µM, first compound 0.316 µM
[22] = second compound 0.1 µM, first compound 1 µM
[23] = second compound 0.1 µM, first compound 3.16 µM
[24] = second compound 0.1 µM, first compound 10 µM
[25] = second compound 0.316 µM, first compound 0.0316 µM
[26] = second compound 0.316 µM, first compound 0.1 µM
[27] = second compound 0.316 µM, first compound 0.316 µM
[28] = second compound 0.316 µM, first compound 1 µM
[29] = second compound 0.316 µM, first compound 3.16 µM
[30] = second compound 0.316 µM, first compound 10 µM
[31] = second compound 1 µM, first compound 0.0316 µM
[32] = second compound 1 µM, first compound 0.1 µM
[33] = second compound 1 µM, first compound 0.316 µM
[34] = second compound 1 µM, first compound 1 µM
[35] = second compound 1 µM, first compound 3.16 µM
[36] = second compound 1 µM, first compound 10 µM
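Also: spheroids exposed to agents for 7 days before read-out.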
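For viability, T/C in this document: luminescence used as surrogate of cell viability.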

CC(C)NCC(C(=O)N1CCN(c2ncnc3c2C(C)CC3O)CC1)c1ccc(Cl)cc1 (centres undefined) + CC(Nc1ccc2c(c1)OCCn1cc(N3C(=O)OCC3C(F)F)nc1-2)C(N)=O
IC50 (second compound 0.00316 µM): > 10 µM | IC50 (second compound 0.01 µM): > 10 µM | IC50 (second compound 0.0316 µM): > 10 µM | IC50 (second compound 0.1 µM): > 10 µM | IC50 (second compound 0.316 µM): > 10 µM | IC50 (second compound 1 µM): 7.61 µM | viability, T/C [1]: 98.4% | viability, T/C [2]: 118% | viability, T/C [3]: 71.2% | viability, T/C [4]: 76.8% | viability, T/C [5]: 91.9% | viability, T/C [6]: 77.9% | viability, T/C [7]: 79.3% | viability, T/C [8]: 86.5% | viability, T/C [9]: 74.4% | viability, T/C [10]: 84.7% | viability, T/C [11]: 83.4% | viability, T/C [12]: 81.2% | viability, T/C [13]: 68.5% | viability, T/C [14]: 90.4% | viability, T/C [15]: 59.4% | viability, T/C [16]: 77.1% | viability, T/C [17]: 73.5% | viability, T/C [18]: 60.9% | viability, T/C [19]: 60.1% | viability, T/C [20]: 82% | viability, T/C [21]: 68.6% | viability, T/C [22]: 72.4% | viability, T/C [23]: 83.9% | viability, T/C [24]: 64% | viability, T/C [25]: 57.5% | viability, T/C [26]: 60.7% | viability, T/C [27]: 57.6% | viability, T/C [28]: 65.5% | viability, T/C [29]: 57.8% | viability, T/C [30]: 62.8% | viability, T/C [31]: 51.4% | viability, T/C [32]: 59.2% | viability, T/C [33]: 67.6% | viability, T/C [34]: 60.8% | viability, T/C [35]: 57.3% | viability, T/C [36]: 37.2%

C[C@@H](NC(=O)c1ncnc(N)c1Cl)c1ncc(C(=O)Nc2cc(C(F)(F)F)c(Cl)cn2)s1 + CC(Nc1ccc2c(c1)OCCn1cc(N3C(=O)OCC3C(F)F)nc1-2)C(N)=O
IC50 (second compound 0.00316 µM): > 10 µM | IC50 (second compound 0.01 µM): > 10 µM | IC50 (second compound 0.0316 µM): > 10 µM | IC50 (second compound 0.1 µM): > 10 µM | IC50 (second compound 0.316 µM): > 10 µM | IC50 (second compound 1 µM): > 10 µM | viability, T/C [1]: 105% | viability, T/C [2]: 74.9% | viability, T/C [3]: 73.3% | viability, T/C [4]: 91.9% | viability, T/C [5]: 80.4% | viability, T/C [6]: 97.9% | viability, T/C [7]: 83.9% | viability, T/C [8]: 98.7% | viability, T/C [9]: 101% | viability, T/C [10]: 94.8% | viability, T/C [11]: 97.1% | viability, T/C [12]: 130% | viability, T/C [13]: 62.2% | viability, T/C [14]: 107% | viability, T/C [15]: 69% | viability, T/C [16]: 98.9% | viability, T/C [17]: 95.2% | viability, T/C [18]: 109% | viability, T/C [19]: 72.9% | viability, T/C [20]: 67.8% | viability, T/C [21]: 63.6% | viability, T/C [22]: 77.7% | viability, T/C [23]: 75.2% | viability, T/C [24]: 66% | viability, T/C [25]: 65.5% | viability, T/C [26]: 70.6% | viability, T/C [27]: 78.2% | viability, T/C [28]: 73.5% | viability, T/C [29]: 77.2% | viability, T/C [30]: 70.9% | viability, T/C [31]: 69.4% | viability, T/C [32]: 62.2% | viability, T/C [33]: 56% | viability, T/C [34]: 57.9% | viability, T/C [35]: 69.9% | viability, T/C [36]: 62%
